Data reported in patent US10815247B2, “Functionalized NANOLUC inhibitors” (PROMEGA CORPORATION, priority 2016, dated 2020).
Entries after “also recorded” stand apart in the source; their conditions may differ.

What was measured:
[1] = system: Nluc-HT fusion protein; assay: Inhibition of Nluc luciferase by JRW-0308 (FIG. 1); assay type: biochemical; conditions: 0.05 nM protein in PBS/0.05% BSA, 2 hours at room temperature, furimazine 10 μM
[2] = molecular target: Nluc in HeLa cells (Oplophorus gracilirostris, UniProt Q9GV45, A31E/A60N/A81I/F95D/I117V/K70R/L54V/L99Q/M102K/N193R/P142E/Q151K/Q38R/Q45L/V71I/Y165I); assay: Inhibition of Nluc luciferase in cells (FIG. 2A); conditions: 2 hours at 37° C., furimazine 190 μM
Experimental: (§4) HeLa cells were reverse transfected with expression constructs for Nluc or Nluc-HT, plated (20,000 cells/100 μL growth medium) and incubated for 24 hours. […] HeLa cells were reverse transfected with expression constructs for Nluc or Nluc-HT, plated (20,000 cells/100 μL growth medium), and incubated for 24 hours.

[3] = molecular target: Nluc-HT-TMR (Nluc-HT conjugated to TMR chloroalkane) (Oplophorus gracilirostris, UniProt Q9GV45, A31E/A60N/A81I/F95D/I117V/K70R/L54V/L99Q/M102K/N193R/P142E/Q151K/Q38R/Q45L/V71I/Y165I); assay: Inhibition of Nluc luciferase by JRW-0308 (FIG. 1); conditions: 0.05 nM protein in PBS/0.05% BSA, 2 hours at room temperature, furimazine 10 μM
Experimental: (§5) Samples were analyzed after addition of furimazine (10 μM final concentration) using a BMG Clariostar plate reader.

[4] = system: Nluc-HT fusion protein in HeLa cells; assay: Inhibition of Nluc luciferase in cells (FIG. 2A, 2B); assay type: cell-based; conditions: 2 hours at 37° C., furimazine 190 μM
[5] = molecular target: T1, NanoLuc (Oplophorus gracilirostris, UniProt Q9GV45, A31E/A60N/A81I/F95D/I117V/K70R/L54V/L99Q/M102K/N193R/P142E/Q151K/Q38R/Q45L/V71I/Y165I); assay: Inhibitor IC50 determination; assay type: biochemical
Experimental: The following example provides the IC50 values for the compounds disclosed herein. NANOLUC® enzyme was diluted to 0.4 ng/ml in CO2 independent media+10% FBS to make the detection reagent. A 3× dilution series of each inhibitor was then made in the detection reagent. A “no inhibitor” control was also made for each sample. 50 ul of each inhibitor dilution was mixed with 50 ul of NanoGlo® buffer containing 20 μM furimazine (final furimazine concentration is 10 μM, which is at Km.), and luminescence was measured. Each sample was normalized to the “no inhibitor” control. The IC50 values were then determined using GraphPad Prism (log[inhibitor] vs. normalized response).

[6] = molecular target: Nluc (Oplophorus gracilirostris, UniProt Q9GV45, A31E/A60N/A81I/F95D/I117V/K70R/L54V/L99Q/M102K/N193R/P142E/Q151K/Q38R/Q45L/V71I/Y165I); assay: Inhibition of Nluc luciferase by JRW-0308 (FIG. 1); conditions: 0.05 nM protein in PBS/0.05% BSA, 2 hours at room temperature, furimazine 10 μM
Experimental: as §5

[7] = molecular target: Nluc-HT-618 in HeLa cells (Oplophorus gracilirostris, UniProt Q9GV45, A31E/A60N/A81I/F95D/I117V/K70R/L54V/L99Q/M102K/N193R/P142E/Q151K/Q38R/Q45L/V71I/Y165I); assay: Inhibition of Nluc luciferase in cells (FIG. 2B); conditions: HeLa cells pre-labelled with 500 nM NanoBRET 618 ligand, 2 hours at 37° C., furimazine 190 μM
Experimental: as §4

[8] = molecular target: T1, NanoLuc; assay: Suicide inhibition: displacement of inhibitor by furimazine upon dilution (FIG. 7); conditions: 10 μM Nluc + 10 μM inhibitor 30 minutes at RT, diluted to 10 pM, furimazine 10 uM
Experimental: Following dilution, 50 ul of the dilution was combined with 50 ul of NanoGlo® assay buffer.
Following dilution, 50 ul of the dilution was combined with 50 ul of NanoGlo® assay buffer. Final furimazine concentration was 10 uM.

[9] = system: Cetux-Fab-Nluc; assay: EGFR/Cetuximab binding assay with inhibitor and PBS wash (FIG. 9); assay type: biochemical; conditions: 1 μM inhibitor for 5 or 30 minutes, PBS wash 0, 10, 30, or 60 minutes, furimazine 10 μM
Experimental: Cetux-Fab-Nluc competes with Cetuximab for binding of EGFR. […] Following the first reading, 1 μM inhibitor is added for a period of 5 minutes or 30 minutes. The plates were subsequently washed with PBS for 0, 10, 30, or 60 minutes.

[10] = molecular target: T1, NanoLuc; assay: Multiplexing luciferases with the same wavelength (FIG. 11); assay type: biochemical; conditions: 100 uM JRW-0552 solution in NanoGlo buffer, 0.4 ng/ml NanoLuc, kinetic read
Experimental: (§1) Three conditions are represented in this figure: 1) NanoLuc with JRW-0552; 2) NanoLuc and HiBiT with JRW-0552; and 3) NanoLuc and LgBiT with JRW-0552. At the 50 minute mark, an addition is done in each condition: 1) furimazine; 2) furimazine; and 3) LgBiT, furimazine, and HiBiT, respectively.
(§2) The following solutions were prepared in TBS+20 uM furimazine: 1) 0.4 ng/ml NanoLuc, 2) 0.4 ng/ml NanoLuc+0.2 nM HaloTag-HiBiT, 3) 0.4 ng/ml NanoLuc+200 nM LgBiT. 50 ul of each solution was combined in triplicate with a solution containing 100 uM JRW-0552 diluted into NanoGlo® buffer.
(§3) After 50 minutes, 100 ul of the following solutions were added to the corresponding samples: 1) NanoGlo® buffer+50 uM furimazine, 2) NanoGlo® buffer+50 uM furimazine+200 nM LgBiT, 3) NanoGlo® buffer+50 uM furimazine+0.2 nM HaloTag-HiBiT.

[11] = system: NanoBiT (LgBiT and HaloTag-HiBiT); assay: as above; assay type: biochemical; conditions: 100 uM JRW-0552 solution; LgBiT 200 nM, HaloTag-HiBiT 0.2 nM added after 50 minutes
Experimental: as §1, §2, §3

[12] = molecular target: T1, NanoLuc; conditions: inhibitor diluted to 3 uM, NanoLuc 0.4 ng/ml, 100 uM furimazine, read at two minute intervals
Experimental: Inhibitors were diluted to 3 uM into OptiMEM+0.1% FBS. NanoLuc was diluted to 0.4 ng/ml into NanoGlo® buffer+100 uM furimazine. 50 ul of each inhibitor was added to 50 ul of the NanoLuc/furimazine/NanoGlo® solution. Samples were immediately placed in a GloMax Multi+ set to read in kinetic mode at two minute intervals.
Inhibitors were diluted to 3 uM into OptiMEM+0.1% FBS. NanoLuc was diluted to 0.4 ng/ml into NanoGlo® buffer+100 uM furimazine. 50 ul of each inhibitor was added to 50 ul of the NanoLuc/furimazine/NanoGlo® solution. Samples were immediately placed in a GloMax® Multi+ set to read in kinetic mode at two minute intervals.

T1 sequence (Q9GV45 28-196 with tags or gaps with the stated changes limits assumed): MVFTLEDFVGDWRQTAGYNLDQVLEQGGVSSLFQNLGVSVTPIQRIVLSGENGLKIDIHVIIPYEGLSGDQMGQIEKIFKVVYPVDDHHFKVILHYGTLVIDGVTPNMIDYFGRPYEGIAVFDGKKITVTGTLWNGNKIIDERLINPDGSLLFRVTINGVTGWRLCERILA
Nluc-HT-618 in HeLa cells, sequence (Q9GV45 28-196 with tags or gaps with the stated changes limits assumed): as above
Nluc in HeLa cells, sequence (Q9GV45 28-196 with tags or gaps with the stated changes limits assumed): as above
Nluc, sequence (Q9GV45 28-196 with tags or gaps with the stated changes limits assumed): as above
Nluc-HT-TMR (Nluc-HT conjugated to TMR chloroalkane), sequence (Q9GV45 28-196 with tags or gaps with the stated changes limits assumed): as above

With `CCN(C(=O)Cn1c(C(=O)N[C@H]2CC[C@H](C(=O)NCCCCCCNC(=O)OCCOCCOCCOC(=O)NCCOCCOCCCCCCCl)CC2)cc2sccc21)c1cccc(C)c1` [JRW-0308] the “inhibition of Nluc-HT fusion protein” value [1] was “potently inhibits”, the “inhibition of Nluc in cells” value [2] was “higher concentrations are required” and the “inhibition of Nluc-HT-TMR” value [3] was “higher concentrations are required”. The “inhibition of Nluc-HT fusion protein in cells” value [4] was “potently inhibits”, the IC50 [5] was 22 nM and the “inhibition of Nluc alone” value [6] was “higher concentrations are required”. For the same molecule, the “inhibition of Nluc-HT-618 in cells” value [7] was “higher concentrations of JRW-0308 are necessary”.
`CCN(C(=O)Cn1c(C(=O)N[C@H]2CC[C@H](C(=O)NCCCCCCCC(=O)ON3C(=O)CCC3=O)CC2)cc2sccc21)c1cccc(C)c1` [JRW-0552] was tested, and the “displacement of inhibitor by furimazine upon dilution” value [8] was “not displaced”, the “reversibility of Nluc inhibition” value [8] was “irreversible inhibition; also recorded: irreversibly inhibit” and the “reversibility of inhibition after PBS wash” value [9] was “irreversible”. The “inhibition of NanoLuc signal” value [10] was “selectively inhibits”, the “activity of NanoBiT configurations in presence of inhibitor” value [11] was “remain operational” and the “Nluc inhibition over time (kinetic light output)” value [12] was “time dependent inhibition”. It also gave an IC50 [5] of 2.9 nM.
